“And” between values parts separate entries of the source, which are not always exact repeats. Identical values can stand only once.
What was measured:
[1] = tested on: HCT116 multicellular tumor spheroids; assay: Resazurin assay, HCT116 3D spheroids; type: cell-based, human; settings: 96 h; for IC50: spheroids
Description: (§1) CH1/PA-1 (ovarian teratocarcinoma), SW480 (colon carcinoma) and A549 (non-small cell lung cancer) cells were maintained as described in the reference. IMR-90 human fetal lung fibroblasts (from the European Collection of Authenticated Cell Cultures, Porton Down, Salisbury, UK) were cultured in Stable Cell^TM DMEM/F12 supplemented with 0.01 mg/mL human recombinant insulin (both purchased from Sigma-Aldrich) and 10% fetal bovine serum (FBS, BioWest, Nuaillé, France). Human colon carcinoma cell lines HCT116 and HT29 (both kindly provided by the Institute of Cancer Research, Department of Medicine I, Medical University of Vienna, Austria) were cultured in McCoy’s 5a medium supplemented with 4 mM L-glutamine (both purchased from Sigma-Aldrich) and 10% FBS. MCF-7 human breast adenocarcinoma cells (kindly provided by M. Ogris, Department of Pharmaceutical Sciences, University of Vienna, Austria) were maintained in DMEM (high glucose) supplemented with 4 mM L-glutamine, 0.1 mg/mL human insulin (all purchased from Sigma-Aldrich) and 10% FBS. All cell lines were grown as monolayers in 75 cm^2 culture flasks (CytoOne, Starlab, Hamburg, Germany) at 37 °C in a humidified atmosphere containing 5% CO2.
(§2) For growing multicellular tumor spheroids, 400 HCT116, 400 HT29 or 800 MCF-7 cells per well were plated into round-bottom ultra-low attachment 96-well plates (Corning, Glendale, AZ, USA) in the media described above and incubated at 37 °C for 96 h. Spheroids were treated with 10 µM of the two most cytotoxic compounds 3 and 4 for another 96 h. The diameters of the spheroids were measured with Cell^F software under a CKX41 Olympus microscope before treatment and in constant daily intervals over the 96 h treatment period. For statistical analysis the t-test with Welsh’s correction was implemented in GraphPad Prism software (Version 6.01).
(§3) For the resazurin assay in monolayer cultures, cells were seeded into 96-well microculture plates (CytoOne, tissue culture treated, Starlab, Hamburg, Germany) in densities of 2 × 10^3 HCT116, 2 × 10^3 HT29 and 4 × 10^3 MCF-7 cells per well (each in 100 µL). For tests in 3D cultures, spheroids were grown as described above. After 24 h (for monolayers) or 4 days (for spheroids) the test compounds in the appropriate medium were added in serial dilution to the plates to obtain a total volume of 200 µL/well. Wells without cells, containing medium and resazurin (Alfa Aesar, Thermo Fisher, Kandel, Germany) solution were used as blanks. After 96 h exposure 20 µL of the resazurin solution (440 µM) were added to each well, followed by a 4 h (2D) or 12 h (3D) incubation period. Resorufin fluorescence was quantified at 530 nm (and a reference wavelength of 620 nm) by using a microplate reader (Synergy HT, BioTek) with Gen5^TM 3.10 software (BioTek).

[2] = tested on: HT29 multicellular tumor spheroids; assay: Resazurin assay, HT29 3D spheroids; type: cell-based, human; settings: 96 h; for IC50: spheroids
Description: as §1, §2, §3

[3] = tested on: MCF-7 cells; assay: Resazurin assay, MCF-7 2D monolayer; type: cell-based, human; settings: 96 h
Description: as §1, §3

[4] = tested on: MCF-7 multicellular tumor spheroids; assay: Resazurin assay, MCF-7 3D spheroids; type: cell-based, human; settings: 96 h; for IC50: spheroids
Description: as §1, §2, §3

[5] = Solubility in PBS (1% DMSO); type: physicochemical
Description: Stock solutions in DMSO of compounds 1–10 were utilized to determine the solubility in PBS by adding 1 vol% of the stock solution to a suitable amount of PBS. […] UV/Vis data were recorded on a Perkin Elmer Lambda 650 UV/Vis Spectrophotometer with a Peltier element for temperature control.

[6] = Cyclic voltammetry in MeCN (W(IV) to W(V)); type: physicochemical; settings: vs. NHE, scan rate 200 mV/s
Description: NMR spectra were recorded with a Bruker FT-NMR Avance III^TM 500 MHz spectrometer at 500.10 (^1H), and 125.75 MHz (^13C) using DMSO–d6. 2D-NMR measurements were recorded utilizing standard pulse programs COSY, HSQC and HMBC. The Microanalytical Laboratory of the University of Vienna performed the elemental analyses with a Eurovector EA 3000(2009) equipped with a high temperature pyrolysis furnace (HT, Hekatech, Germany, 2009). Elemental analyses’ samples were weighed (weights from 1–3 mg were used) on a Sartorius SEC 2 ultra-micro balance with ±0.1 µg resolution. Two NIST-certified reference materials were used for calibration: sulfanilamide (C6H8N2O2S) and BBOT (2,5-bis-(5-tert-butyl-2-benzoxazol-2-yl)-thiophenone, C26H26N2O2S). The limit of quantification (LOQ) was 0.05 w% for C, H, N and 0.02 w% for S. For samples without N and/or S, the content of these elements was determined and verified to be below the LOQ. X-ray diffraction analyses were carried out on a Bruker X8 APEX II CCD diffractometer at 100 K. ESI-MS were recorded on a Bruker AmaZon SL ion trap mass spectrometer (Bruker Daltonics GmbH). Data were obtained and processed with Compass 1.3 and Data Analysis 4.0 (Bruker Daltonics GmbH). Infrared spectra were attained on a Bruker Vertex 70 FT-IR-spectrometer with an ATR-unit (attenuated total reflection unit) in the range of 4000–600 cm^−1. Intensities of the reported bands are described with w for weak, m for medium and s for strong; broad signals are additionally specified with the letter b in front of these abbreviations. Cyclic voltammograms (CVs) were measured in a three-electrode cell using 2 mm diameter glassy carbon disk working electrode, a platinum auxiliary electrode and an Ag|Ag^+ reference electrode containing 0.1 M AgNO3. Measurements were carried out at room temperature using an EG&G PARC potentiostat/galvanostat 273A. The solutions were deoxygenized by purging a stream of argon for 3 min through the solution and the experiment was performed under an argon atmosphere. The potentials were measured in a freshly prepared solution of (n Bu4N)[BF4] (0.1 M) in acetonitrile using ferrocene (Fe(η^5-C5H5)2) (E1/2 = +0.72 V vs. NHE) as an internal standard and are quoted relative to the normal hydrogen electrode (NHE).
The electrochemical behavior of all complexes and the precursor Cp2WCl2 was studied by cyclic voltammetry with a scan rate of 200 mV/s, from −0.5 to +1.2 or +1.5 V. Measurements were performed in triplicate. Due to low water solubility of compounds 1–10 acetonitrile (MeCN) was utilized in order to reach the 2 mM concentration.

[7] = tested on: HCT116 cells; assay: Annexin V-FITC/PI apoptosis assay, HCT116; type: cell-based, human; settings: HCT116, 24 h; for ∑apoptotic cells [%]: sum of early and late

Cc1occc(=S)c1[O-].F[P-](F)(F)(F)(F)F.[W+4].c1cc[cH-]c1.c1cc[cH-]c1 [Compound 2, Bis(η^5-cyclopentadienyl)[2-methyl-3-(oxo-κO)-4-(1H)-pyran-4-thionato-κS]tungsten(IV) hexafluorophosphate]
ratio 3D/2D of IC50 values, HCT116 [1]: 1.6 | IC50 [1]: 158 ± 28 µM | ratio 3D/2D of IC50 values, HT29 [2]: > 3.8 | IC50 [2]: > 200 µM | IC50 [3]: 66 ± 12 µM | ratio 3D/2D of IC50 values, MCF-7 [4]: > 3.0 | IC50 [4]: > 200 µM | Solubility in PBS (1% DMSO) [5]: 250 µg/mL | E1/2 [6]: 1.047 V | early apoptotic cells [%] AV+ / PI- ([7]; 200 µM): 7.2 ± 1.9% | late apoptotic cells [%] AV+ / PI+ ([7]; 200 µM): 27.1 ± 17.6% | necrotic cells [%] AV- / PI+ ([7]; 200 µM): 2.2 ± 0.2% | viable cells [%] AV- / PI- ([7]; 200 µM): 63.5 ± 18.6%

F[P-](F)(F)(F)(F)F.O=c1c([O-])c(-c2ccc(Cl)cc2)oc2ccccc12.[W+4].c1cc[cH-]c1.c1cc[cH-]c1 [Compound 3, Bis(η^5-cyclopentadienyl)[2-(4-chlorophenyl)-3-(oxo-κO)-4(H)-chromen-4-oato-κO]tungsten(IV) hexafluorophosphate]
ratio 3D/2D of IC50 values, HCT116 [1]: 2.3 | IC50 [1]: 21 ± 4 µM | ratio 3D/2D of IC50 values, HT29 [2]: 5.1 | IC50 [2]: 86 ± 2 µM | IC50 [3]: 6.5 ± 1.8 µM | ratio 3D/2D of IC50 values, MCF-7 [4]: 6.8 and 7.0 | IC50 [4]: 44 ± 1 µM | Solubility in PBS (1% DMSO) [5]: 30 µg/mL | E1/2 [6]: 1.059 V | early apoptotic cells [%] AV+ / PI- ([7]; 2 µM): 4.6 ± 1.7% | late apoptotic cells [%] AV+ / PI+ ([7]; 2 µM): 13.5 ± 0.6% | necrotic cells [%] AV- / PI+ ([7]; 2 µM): 4.3 ± 0.7% | viable cells [%] AV- / PI- ([7]; 2 µM): 77.7 ± 1.6% | ∑apoptotic cells [%] ([7]; 2 µM): 18.1% | early apoptotic cells [%] AV+ / PI- ([7]; 20 µM): 5.0 ± 0.9% | late apoptotic cells [%] AV+ / PI+ ([7]; 20 µM): 12.1 ± 2.9% | necrotic cells [%] AV- / PI+ ([7]; 20 µM): 2.5 ± 0.6% | viable cells [%] AV- / PI- ([7]; 20 µM): 80.4 ± 2.6% | ∑apoptotic cells [%] ([7]; 20 µM): 17.1% | early apoptotic cells [%] AV+ / PI- ([7]; 100 µM): 3.3 ± 1.1% | late apoptotic cells [%] AV+ / PI+ ([7]; 100 µM): 75.5 ± 5.6% | necrotic cells [%] AV- / PI+ ([7]; 100 µM): 12.8 ± 0.2% | viable cells [%] AV- / PI- ([7]; 100 µM): 8.6 ± 4.3% | ∑apoptotic cells [%] ([7]; 100 µM): 78.8% | early apoptotic cells [%] AV+ / PI- ([7]; 200 µM): 0.0 ± 0.0% | late apoptotic cells [%] AV+ / PI+ ([7]; 200 µM): 94.1 ± 4.8% | necrotic cells [%] AV- / PI+ ([7]; 200 µM): 5.5 ± 4.9% | viable cells [%] AV- / PI- ([7]; 200 µM): 0.4 ± 0.3%

F[P-](F)(F)(F)(F)F.[O-]c1c(-c2ccc(Cl)cc2)oc2ccccc2c1=S.[W+4].c1cc[cH-]c1.c1cc[cH-]c1 [Compound 4, Bis(η^5-cyclopentadienyl)[2-(4-chlorophenyl)-3-(oxo-κO)-4(H)-chromen-4-thionato-κS]tungsten(IV) hexafluorophosphate]
ratio 3D/2D of IC50 values, HCT116 [1]: 2.5 | IC50 [1]: 15 ± 4 µM | ratio 3D/2D of IC50 values, HT29 [2]: 5.6 | IC50 [2]: 31 ± 6 µM | IC50 [3]: 2.7 ± 0.7 µM | ratio 3D/2D of IC50 values, MCF-7 [4]: 7.0 | IC50 [4]: 19 ± 2 µM | Solubility in PBS (1% DMSO) [5]: 10 µg/mL | E1/2 [6]: 1.082 V | early apoptotic cells [%] AV+ / PI- ([7]; 2 µM): 2.3 ± 0.0% | late apoptotic cells [%] AV+ / PI+ ([7]; 2 µM): 8.0 ± 6.2% | necrotic cells [%] AV- / PI+ ([7]; 2 µM): 2.4 ± 1.5% | viable cells [%] AV- / PI- ([7]; 2 µM): 87.3 ± 7.8% | ∑apoptotic cells [%] ([7]; 2 µM): 10.3% | early apoptotic cells [%] AV+ / PI- ([7]; 20 µM): 1.9 ± 0.4% | late apoptotic cells [%] AV+ / PI+ ([7]; 20 µM): 31.1 ± 4.7% | necrotic cells [%] AV- / PI+ ([7]; 20 µM): 11.5 ± 1.2% | viable cells [%] AV- / PI- ([7]; 20 µM): 55.5 ± 4.8%

F[P-](F)(F)(F)(F)F.O=C([O-])c1ccccn1.[W+4].c1cc[cH-]c1.c1cc[cH-]c1 [Compound 5, Bis(η^5-cyclopentadienyl)[2-(carboxylato-κO)-pyridine-κN]tungsten(IV) hexafluorophosphate]
IC50 [1]: > 200 µM | IC50 [2]: > 200 µM | IC50 [3]: > 200 µM | IC50 [4]: > 200 µM | Solubility in PBS (1% DMSO) [5]: 180 µg/mL | E1/2 [6]: 1.330 V | early apoptotic cells [%] AV+ / PI- ([7]; 200 µM): 2.0 ± 1.1% | late apoptotic cells [%] AV+ / PI+ ([7]; 200 µM): 2.9 ± 0.7% | necrotic cells [%] AV- / PI+ ([7]; 200 µM): 2.4 ± 1.2% | viable cells [%] AV- / PI- ([7]; 200 µM): 92.7 ± 1.3% | ∑apoptotic cells [%] ([7]; 200 µM): 4.9%

Cc1c([O-])c(=O)ccn1C.F[P-](F)(F)(F)(F)F.[W+4].c1cc[cH-]c1.c1cc[cH-]c1 [Compound 6, Bis(η^5-cyclopentadienyl)[1,2-dimethyl-3-(oxo-κO)-4-(1H)-pyridonato-κO]tungsten(IV) hexafluorophosphate]
IC50 [1]: > 200 µM | IC50 [2]: > 200 µM | IC50 [3]: 172 ± 45 µM | IC50 [4]: > 200 µM | Solubility in PBS (1% DMSO) [5]: 1200 µg/mL | E1/2 [6]: 0.885 V | early apoptotic cells [%] AV+ / PI- ([7]; 200 µM): 5.0 ± 1.3% | late apoptotic cells [%] AV+ / PI+ ([7]; 200 µM): 17.2 ± 122% | necrotic cells [%] AV- / PI+ ([7]; 200 µM): 3.1 ± 0.7% | viable cells [%] AV- / PI- ([7]; 200 µM): 74.7 ± 14.1% | ∑apoptotic cells [%] ([7]; 200 µM): 22.2%

Cc1cc(=O)c([O-])co1.F[P-](F)(F)(F)(F)F.[W+4].c1cc[cH-]c1.c1cc[cH-]c1 [Compound 7, Bis(η^5-cyclopentadienyl)[2-methyl-5-(oxo-κO)-4-(1H)-pyran-4-ato-κO] tungsten(IV) hexafluorophosphate]
IC50 [1]: > 200 µM | IC50 [2]: > 200 µM | IC50 [3]: > 200 µM | IC50 [4]: > 200 µM | Solubility in PBS (1% DMSO) [5]: 350 µg/mL | E1/2 [6]: 1.071 V | early apoptotic cells [%] AV+ / PI- ([7]; 200 µM): 4.5 ± 1.8% | late apoptotic cells [%] AV+ / PI+ ([7]; 200 µM): 13.7 ± 8.2% | necrotic cells [%] AV- / PI+ ([7]; 200 µM): 3.6 ± 0.9% | viable cells [%] AV- / PI- ([7]; 200 µM): 78.2 ± 9.3% | ∑apoptotic cells [%] ([7]; 200 µM): 18.2%
